Assay results from patent US20250332160A1, “COMPOSITION CONTAINING ARIPIPRAZOLE AS ACTIVE INGREDIENT FOR ENHANCING ANTICANCER EFFECT OF ERK INHIBITOR” (KOREA INSTITUTE OF RADIOLOGICAL & MEDICAL SCIENCES, priority 2022, published 2025).

Assays:
NOXA = assay: Expression of NOXA protein in COLO 205 cells, Western blot; assay type: cell-based; details: eight hours after treatment, Western blot (FIG. 1)
Protocol: (§1) To identify an effect of aripiprazole on the expression of NOXA and PUMA proteins in cancer cells, COLO 205 cells were treated with aripiprazole. Eight hours later, proteins were extracted from cells after washing with PBS, and a level of NOXA and PUMA expression was checked via Western blot.

PUMA = assay: Expression of PUMA protein in COLO 205 cells, Western blot; assay type: cell-based; details: eight hours after treatment, Western blot (FIG. 1)
Protocol: as §1

O=C1CCc2ccc(OCCCCN3CCN(c4cccc(Cl)c4Cl)CC3)cc2N1 [aripiprazole]
expression of NOXA protein (NOXA): increased
expression of PUMA protein (PUMA): increased
